Assays:
persian speedwell [1] = test: Test Example 5: herbicidal effect by foliage application, plastic box (Table 20, symbol R); type: in vivo, Persian speedwell (Veronica persica); conditions: foliage application, 320 g/ha, evaluated three weeks after application
Outline: (§1)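 Plants sown in sterilized diluvial soil and grown 14 days in a greenhouse at 25° C to 30° C, then sprayed on the foliage with the compound's emulsion diluted in water to a predetermined herbicide amount. Injury to weeds and crops scored three weeks after application on a visual rating scale.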

wild oat [2] = test: Test Example 4: herbicidal effect by soil treatment (Table 19, symbol I); type: in vivo, wild oat (Avena fatua); conditions: amount of applied herbicide 320 g/ha
Outline: (§2)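 Seeds were sown in sterilized diluvial soil and covered with about 1.5 cm of soil. An emulsion formulation diluted with water to a predetermined herbicide amount was sprayed evenly onto the soil surface. Plants grew in a greenhouse at 25° C. to 30° C., and the effect was scored three weeks after application using criteria from an earlier test.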

green foxtail [3] = test: Test Example 4: herbicidal effect by soil treatment (Table 19, symbol G); type: in vivo, green foxtail (Setaria viridis); conditions: amount of applied herbicide 320 g/ha
Outline: as §2

blackgrass [4] = test: Test Example 4: herbicidal effect by soil treatment (Table 19, symbol J); type: in vivo, blackgrass (Alopecurus myosuroides); conditions: amount of applied herbicide 320 g/ha
Outline: as §2

redroot pigweed [5] = test: Test Example 5: herbicidal effect by foliage application, plastic box (Table 20, symbol N); type: in vivo, redroot pigweed (Amaranthus retroflexus); conditions: foliage application, 320 g/ha, evaluated three weeks after application
Outline: as §1

windgrass [6] = test: Test Example 4: herbicidal effect by soil treatment (Table 19, symbol L); type: in vivo, windgrass (Apera spica-venti); conditions: amount of applied herbicide 320 g/ha
Outline: as §2

lambsquarters [7] = test: Test Example 4: herbicidal effect by soil treatment (Table 19, symbol O); type: in vivo, lambsquarters (Chenopodium album); conditions: amount of applied herbicide 320 g/ha
Outline: as §2

redroot pigweed [8] = test: Test Example 4: herbicidal effect by soil treatment (Table 19, symbol N); type: in vivo, redroot pigweed (Amaranthus retroflexus); conditions: amount of applied herbicide 320 g/ha
Outline: as §2

southern crabgrass [9] = test: Test Example 5: herbicidal effect by foliage application, plastic box (Table 20, symbol F); type: in vivo, southern crabgrass (Digitaria ciliaris); conditions: foliage application, 320 g/ha, evaluated three weeks after application
Outline: as §1

velvetleaf [10] = test: Test Example 5: herbicidal effect by foliage application, plastic box (Table 20, symbol M); type: in vivo, velvetleaf (Abutilon theophrasti); conditions: foliage application, 320 g/ha, evaluated three weeks after application
Outline: as §1

Italian ryegrass [11] = test: Test Example 4: herbicidal effect by soil treatment (Table 19, symbol K); type: in vivo, Italian ryegrass (Lolium multiflorum); conditions: amount of applied herbicide 320 g/ha
Outline: as §2

oval-leafed pondweed = test: Test Example 1: herbicidal activity, application before weed generation under submerged conditions (Table 16, symbol C); type: in vivo, oval-leafed pondweed (Monochoria vaginalis); conditions: 320 g/ha applied herbicide
Outline: (§3)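 Emulsion formulation, water-diluted to set dose, was put onto the flooded surface (4 cm depth, alluvial soil) the same day weeds were sown and 2.5-leaf rice transplanted. After 3 weeks at 25-30 °C under glass, each species was rated 0 (≤5% kill) to 5 (≥90% kill).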

barnyard grass [12] = test: Test Example 5: herbicidal effect by foliage application, plastic box (Table 20, symbol H); type: in vivo, barnyard grass (Echinochloa crus-galli); conditions: foliage application, 320 g/ha, evaluated three weeks after application
Outline: as §1

southern crabgrass [13] = test: Test Example 4: herbicidal effect by soil treatment (Table 19, symbol F); type: in vivo, southern crabgrass (Digitaria ciliaris); conditions: amount of applied herbicide 320 g/ha
Outline: as §2

velvetleaf [14] = test: Test Example 4: herbicidal effect by soil treatment (Table 19, symbol M); type: in vivo, velvetleaf (Abutilon theophrasti); conditions: amount of applied herbicide 320 g/ha
Outline: as §2

Chinese sprangletop = test: Test Example 3: herbicidal effect by foliage application, Wagner pot (Table 18, symbol D); type: in vivo, chinese sprangletop (Leptochloa chinensis); conditions: amount of applied herbicide 320 g/ha
Outline: (§4)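 Plants were sown in alluvial soil held under 0.1–0.5 cm standing water and grown 14 days in a greenhouse at 25–30 °C. An emulsifiable formulation, water-diluted to the set dose, was then sprayed onto the foliage, and effects were scored three weeks later using previously defined criteria.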

late watergrass = test: Test Example 1: herbicidal activity, application before weed generation under submerged conditions (Table 16, symbol A); type: in vivo, late watergrass (Echinochloa oryzicola); conditions: 320 g/ha applied herbicide
Outline: as §3

lambsquarters [15] = test: Test Example 5: herbicidal effect by foliage application, plastic box (Table 20, symbol O); type: in vivo, lambsquarters (Chenopodium album); conditions: foliage application, 320 g/ha, evaluated three weeks after application
Outline: as §1

rice flat sedge = test: Test Example 3: herbicidal effect by foliage application, Wagner pot (Table 18, symbol E); type: in vivo, rice flat sedge (Cyperus iria); conditions: amount of applied herbicide 320 g/ha
Outline: as §4

Italian ryegrass [16] = test: Test Example 5: herbicidal effect by foliage application, plastic box (Table 20, symbol K); type: in vivo, Italian ryegrass (Lolium multiflorum); conditions: foliage application, 320 g/ha, evaluated three weeks after application
Outline: as §1

blackgrass [17] = test: Test Example 5: herbicidal effect by foliage application, plastic box (Table 20, symbol J); type: in vivo, blackgrass (Alopecurus myosuroides); conditions: foliage application, 320 g/ha, evaluated three weeks after application
Outline: as §1

Japanese bulrush = test: Test Example 1: herbicidal activity, application before weed generation under submerged conditions (Table 16, symbol B); type: in vivo, Japanese bulrush (Schoenoplectus juncoides); conditions: 320 g/ha applied herbicide
Outline: as §3

green foxtail [18] = test: Test Example 5: herbicidal effect by foliage application, plastic box (Table 20, symbol G); type: in vivo, green foxtail (Setaria viridis); conditions: foliage application, 320 g/ha, evaluated three weeks after application
Outline: as §1

persian speedwell [19] = test: Test Example 4: herbicidal effect by soil treatment (Table 19, symbol R); type: in vivo, Persian speedwell (Veronica persica); conditions: amount of applied herbicide 320 g/ha
Outline: as §2

barnyard grass [20] = test: Test Example 3: herbicidal effect by foliage application, Wagner pot (Table 18, symbol H); type: in vivo, barnyard grass (Echinochloa crus-galli); conditions: amount of applied herbicide 320 g/ha
Outline: as §4

chickweed [21] = test: Test Example 5: herbicidal effect by foliage application, plastic box (Table 20, symbol P); type: in vivo, common chickweed (Stellaria media); conditions: foliage application, 320 g/ha, evaluated three weeks after application
Outline: as §1

windgrass [22] = test: Test Example 5: herbicidal effect by foliage application, plastic box (Table 20, symbol L); type: in vivo, windgrass (Apera spica-venti); conditions: foliage application, 320 g/ha, evaluated three weeks after application
Outline: as §1

chickweed [23] = test: Test Example 4: herbicidal effect by soil treatment (Table 19, symbol P); type: in vivo, common chickweed (Stellaria media); conditions: amount of applied herbicide 320 g/ha
Outline: as §2

wild oat [24] = test: Test Example 5: herbicidal effect by foliage application, plastic box (Table 20, symbol I); type: in vivo, wild oat (Avena fatua); conditions: foliage application, 320 g/ha, evaluated three weeks after application
Outline: as §1

barnyard grass [25] = test: Test Example 4: herbicidal effect by soil treatment (Table 19, symbol H); type: in vivo, barnyard grass (Echinochloa crus-galli); conditions: amount of applied herbicide 320 g/ha
Outline: as §2

## CCOc1cccc(-c2sc3ccc(F)cc3c2-c2c(O)c(C)nn(C)c2=O)c1 [2-211]
Persian speedwell [1]
  herbicidal effect on R: persian speedwell (criteria 0-5): 5 (Herbicidal rate of 90% or more (almost completely withered))
Wild oat [2]
  I: wild oat, herbicidal effect rating: 0 (Herbicidal rate of 5% or less (almost no effect))
Green foxtail [3]
  G: green foxtail, herbicidal effect rating: 4 (Herbicidal rate of 70% or more and less than 90%)
Blackgrass [4]
  J: blackgrass, herbicidal effect rating: 4 (Herbicidal rate of 70% or more and less than 90%)
Redroot pigweed [5]
  herbicidal effect on N: redroot pigweed (criteria 0-5): 5 (Herbicidal rate of 90% or more (almost completely withered))
Windgrass [6]
  L: windgrass, herbicidal effect rating: 3 (Herbicidal rate of 40% or more and less than 70%)
Lambsquarters [7]
  O: lambsquarters, herbicidal effect rating: 2 (Herbicidal rate of 20% or more and less than 40%)
Redroot pigweed [8]
  N: redroot pigweed, herbicidal effect rating: 5 (Herbicidal rate of 90% or more (almost completely withered))
Southern crabgrass [9]
  herbicidal effect on F: southern crabgrass (criteria 0-5): 5 (Herbicidal rate of 90% or more (almost completely withered))
Velvetleaf [10]
  herbicidal effect on M: velvetleaf (criteria 0-5): 5 (Herbicidal rate of 90% or more (almost completely withered))
Italian ryegrass [11]
  K: Italian ryegrass, herbicidal effect rating: 5 (Herbicidal rate of 90% or more (almost completely withered))
oval-leafed pondweed
  Herbicidal effect on C: oval-leafed pondweed (grade 0-5): 0 (Herbicidal rate of 5% or less (almost no effect))
Barnyard grass [12]
  herbicidal effect on H: barnyard grass (criteria 0-5): 5 (Herbicidal rate of 90% or more (almost completely withered))
Southern crabgrass [13]
  F: southern crabgrass, herbicidal effect rating: 5 (Herbicidal rate of 90% or more (almost completely withered))
Velvetleaf [14]
  M: velvetleaf, herbicidal effect rating: 3 (Herbicidal rate of 40% or more and less than 70%)
Chinese sprangletop
  herbicidal effect on D: Chinese sprangletop: 5 (Herbicidal rate of 90% or more (almost completely withered))
Late watergrass
  Herbicidal effect on A: late watergrass (grade 0-5): 2 (Herbicidal rate of 20% or more and less than 40%)
Lambsquarters [15]
  herbicidal effect on O: lambsquarters (criteria 0-5): 5 (Herbicidal rate of 90% or more (almost completely withered))
Rice flat sedge
  herbicidal effect on E: rice flat sedge: 4 (Herbicidal rate of 70% or more and less than 90%)
Italian ryegrass [16]
  herbicidal effect on K: Italian ryegrass (criteria 0-5): 5 (Herbicidal rate of 90% or more (almost completely withered))
Blackgrass [17]
  herbicidal effect on J: blackgrass (criteria 0-5): 4 (Herbicidal rate of 70% or more and less than 90%)
Japanese bulrush
  Herbicidal effect on B: Japanese bulrush (grade 0-5): 0 (Herbicidal rate of 5% or less (almost no effect))
Green foxtail [18]
  herbicidal effect on G: green foxtail (criteria 0-5): 5 (Herbicidal rate of 90% or more (almost completely withered))
Persian speedwell [19]
  R: persian speedwell, herbicidal effect rating: 5 (Herbicidal rate of 90% or more (almost completely withered))
Barnyard grass [20]
  herbicidal effect on H: barnyard grass: 5 (Herbicidal rate of 90% or more (almost completely withered))
Chickweed [21]
  herbicidal effect on P: chickweed (criteria 0-5): 5 (Herbicidal rate of 90% or more (almost completely withered))
Windgrass [22]
  herbicidal effect on L: windgrass (criteria 0-5): 4 (Herbicidal rate of 70% or more and less than 90%)
Chickweed [23]
  P: chickweed, herbicidal effect rating: 3 (Herbicidal rate of 40% or more and less than 70%)
Wild oat [24]
  herbicidal effect on I: wild oat (criteria 0-5): 0 (Herbicidal rate of 5% or less (almost no effect))
Barnyard grass [25]
  H: barnyard grass, herbicidal effect rating: 5 (Herbicidal rate of 90% or more (almost completely withered))

Reference: patent US20230085307A1, “PYRIDAZINONE COMPOUND AND HERBICIDE” (NISSAN CHEMICAL CORPORATION, priority 2019, published 2023)
